Test results reported in the supplement of paper PMC9005190.

Columns and labels:
[1] = target: GPR183 (UniProt P32249); assay: pEC50 of agonist-induced pathway activation (ebBRET)
[2] = target: GPR183 (UniProt P32249); assay: Emax (maximal agonist-induced change in ebBRET relative to vehicle) (% of vehicle response (amplitude of change)); higher = larger response (for Gs, larger decrease in membrane ebBRET, i.e. stronger Gs activation)
[3] = target: LPA1 (UniProt Q92633); assay: pEC50 of agonist-induced pathway activation (ebBRET)
Sequence of LPA1 (Q92633 whole entry): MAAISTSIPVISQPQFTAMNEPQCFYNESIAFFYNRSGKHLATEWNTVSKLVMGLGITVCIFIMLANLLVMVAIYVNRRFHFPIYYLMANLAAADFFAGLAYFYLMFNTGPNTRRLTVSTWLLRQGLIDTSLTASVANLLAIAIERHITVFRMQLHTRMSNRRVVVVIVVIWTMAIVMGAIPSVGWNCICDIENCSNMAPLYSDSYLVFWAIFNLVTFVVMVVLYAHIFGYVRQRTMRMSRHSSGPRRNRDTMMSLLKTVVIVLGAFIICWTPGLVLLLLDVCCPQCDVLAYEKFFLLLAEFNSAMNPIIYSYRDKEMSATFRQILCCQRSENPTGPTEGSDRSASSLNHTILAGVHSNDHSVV

[4] = target: FP (UniProt P43088); assay: as above
Sequence of FP (P43088 whole entry): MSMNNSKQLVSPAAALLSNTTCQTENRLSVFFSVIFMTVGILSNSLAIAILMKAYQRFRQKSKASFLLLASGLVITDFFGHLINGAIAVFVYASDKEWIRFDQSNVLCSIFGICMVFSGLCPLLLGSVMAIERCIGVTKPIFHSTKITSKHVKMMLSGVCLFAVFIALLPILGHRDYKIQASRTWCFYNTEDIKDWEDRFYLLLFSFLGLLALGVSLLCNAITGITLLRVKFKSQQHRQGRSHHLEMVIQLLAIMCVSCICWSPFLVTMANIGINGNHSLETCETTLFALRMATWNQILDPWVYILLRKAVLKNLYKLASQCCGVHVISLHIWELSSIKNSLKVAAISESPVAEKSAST

[5] = target: FP (UniProt P43088); assay: Emax (maximal agonist-induced change in ebBRET relative to vehicle) (% of vehicle response (amplitude of change)); higher = larger response (for Gs, larger decrease in membrane ebBRET, i.e. stronger Gs activation)
[6] = target: T1, EP1 (UniProt P34995); assay: pEC50 of agonist-induced pathway activation (ebBRET)
T1 sequence (whole entry): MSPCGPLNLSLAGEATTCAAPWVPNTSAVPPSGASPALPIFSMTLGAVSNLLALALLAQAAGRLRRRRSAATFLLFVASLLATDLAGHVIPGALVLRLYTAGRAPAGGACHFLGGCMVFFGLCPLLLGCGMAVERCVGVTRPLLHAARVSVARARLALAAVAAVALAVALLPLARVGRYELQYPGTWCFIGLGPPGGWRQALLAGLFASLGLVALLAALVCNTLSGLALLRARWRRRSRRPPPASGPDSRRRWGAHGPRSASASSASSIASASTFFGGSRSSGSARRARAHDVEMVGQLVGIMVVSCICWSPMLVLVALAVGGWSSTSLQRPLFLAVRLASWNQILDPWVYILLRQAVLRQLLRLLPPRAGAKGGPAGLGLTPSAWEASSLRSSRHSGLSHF

[7] = target: PAR2 (UniProt P55085); assay: as above
Sequence of PAR2 (P55085 whole entry): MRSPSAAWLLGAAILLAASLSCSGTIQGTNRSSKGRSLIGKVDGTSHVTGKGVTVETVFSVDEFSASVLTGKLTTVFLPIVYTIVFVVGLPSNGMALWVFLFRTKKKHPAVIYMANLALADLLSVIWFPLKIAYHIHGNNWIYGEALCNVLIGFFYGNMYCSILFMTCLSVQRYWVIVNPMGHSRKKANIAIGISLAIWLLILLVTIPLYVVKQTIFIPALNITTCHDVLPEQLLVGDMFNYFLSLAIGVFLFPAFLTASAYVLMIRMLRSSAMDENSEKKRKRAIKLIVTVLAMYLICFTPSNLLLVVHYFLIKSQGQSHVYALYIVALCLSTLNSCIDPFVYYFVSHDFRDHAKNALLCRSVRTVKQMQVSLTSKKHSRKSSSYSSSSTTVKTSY

[8] = target: PAR2 (UniProt P55085); assay: Emax (maximal agonist-induced change in ebBRET relative to vehicle) (% of vehicle response (amplitude of change)); higher = larger response (for Gs, larger decrease in membrane ebBRET, i.e. stronger Gs activation)
[9] = target: S1P1 (UniProt P21453); assay: pEC50 of agonist-induced pathway activation (ebBRET)
Sequence of S1P1 (P21453 whole entry): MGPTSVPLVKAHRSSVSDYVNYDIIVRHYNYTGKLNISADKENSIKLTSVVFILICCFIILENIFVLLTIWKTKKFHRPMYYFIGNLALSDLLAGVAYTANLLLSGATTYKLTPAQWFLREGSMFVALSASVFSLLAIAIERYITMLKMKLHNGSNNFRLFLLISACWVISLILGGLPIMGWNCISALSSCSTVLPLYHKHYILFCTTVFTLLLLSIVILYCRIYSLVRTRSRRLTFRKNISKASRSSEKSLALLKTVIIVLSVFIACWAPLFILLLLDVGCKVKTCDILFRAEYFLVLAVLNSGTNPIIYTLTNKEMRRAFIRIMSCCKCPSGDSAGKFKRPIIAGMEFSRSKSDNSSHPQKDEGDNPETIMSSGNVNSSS

[10] = target: S1P1 (UniProt P21453); assay: Emax (maximal agonist-induced change in ebBRET relative to vehicle) (% of vehicle response (amplitude of change)); higher = larger response (for Gs, larger decrease in membrane ebBRET, i.e. stronger Gs activation)

Sequence of GPR183 (P32249 whole entry): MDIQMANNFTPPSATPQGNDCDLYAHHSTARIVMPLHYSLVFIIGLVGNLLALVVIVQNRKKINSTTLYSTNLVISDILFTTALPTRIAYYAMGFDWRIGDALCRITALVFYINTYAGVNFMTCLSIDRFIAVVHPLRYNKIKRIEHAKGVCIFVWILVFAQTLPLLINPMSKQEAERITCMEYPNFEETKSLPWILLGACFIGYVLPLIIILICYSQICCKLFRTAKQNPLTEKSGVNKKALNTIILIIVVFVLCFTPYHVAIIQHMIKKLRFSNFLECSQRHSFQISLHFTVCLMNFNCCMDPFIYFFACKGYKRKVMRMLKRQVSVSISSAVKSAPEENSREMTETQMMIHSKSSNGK

C[C@H](CCCC(C)(C)O)[C@H]1CC[C@H]2[C@@H]3[C@H](O)C=C4C[C@@H](O)CC[C@]4(C)[C@H]3CC[C@]12C [7α-25 dihydroxycholesterol]
Conditions | Emax, [2] | pEC50, [1]
pathway (G protein / arrestin sensor): G12 | 53.4 | 8.98
pathway (G protein / arrestin sensor): G15 | 38.1 | 8.51
pathway (G protein / arrestin sensor): Gi1 | 134 | 9.74
pathway (G protein / arrestin sensor): Gi2 | 144 | 9.75
pathway (G protein / arrestin sensor): GoA | 166 | 9.16
pathway (G protein / arrestin sensor): GoB | 190 | 9.75
pathway (G protein / arrestin sensor): Gz | 123 | 9.16
pathway (G protein / arrestin sensor): βarr1/GRK2 | 1120 | 8.95
pathway (G protein / arrestin sensor): βarr2 | 502 | 8.23
pathway (G protein / arrestin sensor): βarr2/GRK2 | 573 | 8.8

CCCCCCCC/C=C\CCCCCCCC(=O)OCC(O)COP(=O)(O)O (configuration not stated) [O-LPA]
[3]
Conditions | pEC50
pathway (G protein / arrestin sensor): G11 | 6.92
pathway (G protein / arrestin sensor): G13 | 8.35
pathway (G protein / arrestin sensor): G14 | 5.63
pathway (G protein / arrestin sensor): G15 | 6.31
pathway (G protein / arrestin sensor): Gi1 | 9.2
pathway (G protein / arrestin sensor): GoA | 8.89
pathway (G protein / arrestin sensor): Gq | 7.51
pathway (G protein / arrestin sensor): βarr1/GRK2 | 7.53
pathway (G protein / arrestin sensor): βarr2 | 6.58
pathway (G protein / arrestin sensor): βarr2/GRK2 | 7.46

CCCCC[C@H](O)/C=C/[C@H]1C(=O)C[C@H](O)[C@@H]1C/C=C\CCCC(=O)O [PGD2]
Conditions | Emax, [5] | pEC50, [4]
pathway (G protein / arrestin sensor): G11 | 459 | 8.66
pathway (G protein / arrestin sensor): G12 | 104 | 8.38
pathway (G protein / arrestin sensor): G13 | 183 | 8.78
pathway (G protein / arrestin sensor): G14 | 578 | 8.17
pathway (G protein / arrestin sensor): G15 | 437 | 8.88
pathway (G protein / arrestin sensor): GoA | 84.8 | 6.92
pathway (G protein / arrestin sensor): GoB | 114 | 6.99
pathway (G protein / arrestin sensor): Gq | 306 | 8.73
pathway (G protein / arrestin sensor): Gz | 122 | 7.46

CCCCC[C@H](O)/C=C/[C@H]1[C@H](O)CC(=O)[C@@H]1C/C=C\CCCC(=O)O [PGE2]
[6]
Conditions | pEC50
pathway (G protein / arrestin sensor): G11 | 8.27
pathway (G protein / arrestin sensor): G12 | 9.51
pathway (G protein / arrestin sensor): G13 | 8.04
pathway (G protein / arrestin sensor): G14 | 7.95
pathway (G protein / arrestin sensor): G15 | 9.29
pathway (G protein / arrestin sensor): Gi1 | 6.43
pathway (G protein / arrestin sensor): Gi2 | 7.37
pathway (G protein / arrestin sensor): GoA | 8
pathway (G protein / arrestin sensor): GoB | 7.46
pathway (G protein / arrestin sensor): Gq | 8.32
pathway (G protein / arrestin sensor): βarr2 | 7.41

CC[C@H](C)[C@H](NC(=O)[C@H](CC(C)C)NC(=O)[C@@H](N)CO)C(=O)NCC(=O)N[C@@H](CCCCN)C(=O)N[C@H](C(N)=O)C(C)C [SLIGKV-NH2]
Conditions | Emax, [8] | pEC50, [7]
pathway (G protein / arrestin sensor): G11 | 483 | 5.96
pathway (G protein / arrestin sensor): G12 | 41.5 | 7.79
pathway (G protein / arrestin sensor): G13 | 235 | 6.87
pathway (G protein / arrestin sensor): G14 | 419 | 5.46
pathway (G protein / arrestin sensor): G15 | 498 | 5.81
pathway (G protein / arrestin sensor): Gi1 | 621 | 5.32
pathway (G protein / arrestin sensor): Gi2 | 326 | 5.65
pathway (G protein / arrestin sensor): GoA | 217 | 5.85
pathway (G protein / arrestin sensor): GoB | 320 | 6.32
pathway (G protein / arrestin sensor): Gq | 304 | 5.18
pathway (G protein / arrestin sensor): Gz | 188 | 6.23
pathway (G protein / arrestin sensor): βarr1/GRK2 | 861 | 4.65
pathway (G protein / arrestin sensor): βarr2 | 766 | 4.63
pathway (G protein / arrestin sensor): βarr2/GRK2 | 489 | 4.75

CCCCCCCCCCCCC/C=C/[C@@H](O)[C@@H](N)COP(=O)(O)O [Sphingosine 1-phosphate]
Conditions | Emax, [10] | pEC50, [9]
pathway (G protein / arrestin sensor): G12 | 92 | 7.18
pathway (G protein / arrestin sensor): G13 | 175 | 6.86
pathway (G protein / arrestin sensor): G15 | 375 | 6.21
pathway (G protein / arrestin sensor): Gi1 | 132 | 8.15
pathway (G protein / arrestin sensor): Gi2 | 99.8 | 7.95
pathway (G protein / arrestin sensor): GoA | 68.5 | 7.75
pathway (G protein / arrestin sensor): GoB | 59.2 | 8.16
pathway (G protein / arrestin sensor): βarr1/GRK2 | 477 | 7.27
pathway (G protein / arrestin sensor): βarr2 | 227 | 6.83
pathway (G protein / arrestin sensor): βarr2/GRK2 | 557 | 7.46
